Where a name gives a salt, the structure may show the parent alone.
What was measured:
MPTP-monkey model = assay: chronic MPTP monkey model of Parkinson's disease; type: in vivo, rhesus monkeys (Macaca fascicularis); parameters: key to Slowing of the development of Parkinsonism: 0 = No slowing of the development of parkinsonism; + = Statistically significant delay in the attainment of Score 8; details: for Symptomatology on the last 3 days: MPTP only group = 100%
[1] = biological target: T1, human recombinant 5-HT1A receptors (Homo sapiens, UniProt P08908); assay: GTP gamma[S-35] binding, agonistic action on human recombinant 5-HT1A receptors; type: biochemical; details: for EC50: GTP gamma[S-35] binding, human recombinant 5-HT1A receptors
T1 sequence (P08908 1-422): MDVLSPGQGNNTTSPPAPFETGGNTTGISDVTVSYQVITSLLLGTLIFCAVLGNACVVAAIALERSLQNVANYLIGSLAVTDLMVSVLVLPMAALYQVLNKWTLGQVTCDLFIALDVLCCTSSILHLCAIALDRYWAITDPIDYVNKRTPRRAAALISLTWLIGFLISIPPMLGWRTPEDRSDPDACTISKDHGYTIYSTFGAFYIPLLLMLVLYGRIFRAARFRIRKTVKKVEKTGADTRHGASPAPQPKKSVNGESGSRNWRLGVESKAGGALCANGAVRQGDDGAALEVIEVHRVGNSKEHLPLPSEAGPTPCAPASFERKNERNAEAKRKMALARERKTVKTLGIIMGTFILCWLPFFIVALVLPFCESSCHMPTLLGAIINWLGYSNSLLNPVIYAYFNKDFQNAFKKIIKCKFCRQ
Procedure: Determination of the Avonistic action on Human Recombinant 5-HT1A Receptors
Signal transduction studies were carried out on human recombinant 5-HT1A receptors using the guanosine 5′-O-(3-[S-35]thio)-triphosphate (GTP gamma[S-35]) binding technique (modified according to Elliott and Reynolds Europ J. Pharmacol 1999, 386, 313-315 and Sim et al. J. Neurosci 1996, 16, 8057-8066).

| EC50 [1] | potency relative to repinotan hydrochloride ([1]; 5-HT1A agonism, from EC50 values) | SMILES | neuroprotective activity after oral administration (MPTP-monkey model; 2 mg/kg p.o. bid) | symptomatic action (MPTP-monkey model; 2 mg/kg p.o. bid) | Slowing of the development of Parkinsonism (MPTP-monkey model; MPTP 0.2 mg/kg i.v. daily + 2.0 mg/kg p.o. bid) | Symptomatology on the last 3 days (MPTP-monkey model; MPTP + 2.0 mg/kg p.o. bid) | neuroprotective activity after oral administration (MPTP-monkey model; 1 mg/kg p.o. bid) | reduction of the degree of severity of the symptoms (symptomatic action) compared with control (MPTP-monkey model; 1 mg/kg p.o. bid) | Slowing of the development of Parkinsonism (MPTP-monkey model; MPTP 0.2 mg/kg i.v. daily + 1.0 mg/kg p.o. bid) | Symptomatology on the last 3 days (MPTP-monkey model; MPTP + 1.0 mg/kg p.o. bid) |
| --- | --- | --- | --- | --- | --- | --- | --- | --- | --- | --- |
| 0.51 nM | – | Cl.O=C1c2ccccc2S(=O)(=O)N1CCCCNC[C@H]1CCc2ccccc2O1 [Repinotan hydrochloride, 2-[4-({[(2R)-chroman-2-yl]methyl}amino)butyl]-1,2-benzisothiazol-3(2H)-one 1,1-dioxide hydrochloride, reference compound] | slowed the development of the parkinsonism symptoms | not observed | + | 100% | – | – | – | – |
| 0.19 nM | approximately twice | CC(C)Oc1cccc2c1O[C@@H](CNCCCCN1C(=O)c3ccccc3S1(=O)=O)CC2 [Example 11, 2-[4-({[(2R)-8-isopropoxy-chroman-2-yl]methyl}amino)butyl]-1,2-benzisothiazol-3(2H)-one 1,1-dioxide hydrochloride] | – | – | – | – | slowed the development of the parkinsonism symptoms | 22% | + | 78% |

Reference: patent US20020177616A1, “Use of chromans” (priority 2001, published 2002)
